Reference: patent US8592451B2, “Reversible nondepolarizing neuromuscular blockade agents and methods for their use” (Cornell University, priority 2009, dated 2013)

Experiments:
[1] = Stability of the CW 002-cysteine adduct (HPLC); assay type: physicochemical
Protocol: [drawing 58] was prepared in one step from CW 002. CW 002 was dissolved in deionized water to give a solution concentration of 37 mg/ml at a pH of 6.6. A 5 mol % excess of L-cysteine hydrochloride monohydrate was added in one portion at ambient temperature to give a solution pH of 2. Stirring for 12 hours gave complete consumption of CW 002, as observed by HPLC. CW002-Cys was isolated as an off-white solid after reaction mixture lyophilization. Product purity was estimated at 95% by HPLC peak area %.
At low pH and temperature, one new peak was formed on L-cysteine addition as the peak corresponding to CW 002 diminished. This new peak corresponds to the initial peak observed in the in vitro L-cysteine adduction experiments at 37° C. and a pH of 7.4. At elevated temperature and pH, such as conditions used to mimic in vivo reactivity, this initial peak quickly diminishes over time (t½˜60 min) while two new adduct peaks arise secondary to alkaline hydrolysis of the adduct. However, at ambient temperature and a pH of 2, the initial adduct is stable for >24 hours, allowing for isolation of the intermediate.

[2] = system: twitch of the extensor digitorum; experiment: Neuromuscular blocking potency and duration in anesthetized rhesus monkeys; assay type: in vivo, rhesus monkeys (Macaca mulatta); settings: following cumulative dosage, three animals
Protocol: Experiments were approved by the Institutional Animal Care and Use Committee of Weill Medical College of Cornell University (New York, N.Y.) and of Albany Medical College (Albany, N.Y.), where the studies were conducted. A colony of 10 adult male monkeys (Macaca mulatta) weighing 8-18 kg was studied at ˜6 week intervals. Animals were housed and cared for in accordance with the Guide for Care and Use of Laboratory Animals (National Research Council, Washington, D.C.). They were fed a standard Old World monkey diet, enriched with fruits and vegetables, and other dietary novelties and were followed throughout the study to verify normal health by physical examination, body weight, and clinical laboratory studies (Complete Blood Count, Blood Urea Nitrogen and creatinine, and liver function tests).
On the day of each study, monkeys received ketamine (7-10 mg/kg i.m.) followed by tracheal intubation under topical anesthesia with 4% lidocaine. Ventilation was controlled at 10 mL/kg and 20 breaths/min with isoflurane (1.0-2.0%) and N2O/O2 (2:1 mixture). Ringers lactate was administered at ˜10 ml kg^−1 h^−1. Arterial pressure was monitored from a femoral, superficial tibial, or radial (22 gauge) cannula. Heart rate was measured by tachograph from the arterial pulse wave. Core temperature was kept at 36.5-38.0° C. by warming blankets. Electrocardiogram and pulse oximetry were monitored continuously.
Needle electrodes (25 gauge) transmitting square-wave pulses of 0.2 msec duration at supramaximal voltage which were generated by a Grass S-88 stimulator (Grass Instruments, Quincy, Mass.) were placed at the peroneal nerve at the knee to elicit twitch responses of the extensor digitorum of the foot at 0.15 Hz. A small slip (10-20%) of the tendon was dissected free under sterile technique and tied to a Grass FT 10 force transducer (Grass Instruments, Quincy, Mass.) at a baseline tension of 50 gm. Train-of four stimulation (TOF, 2 Hz for 2 sec) was interposed at appropriate points, especially 1-2 min prior to NMBA dosing and following recovery of twitch to 95% of baseline, where TOF was subsequently evaluated every 1-2 min.
Recordings of circulatory and neuromuscular data were made on a Grass 7B polygraph (Grass Instruments). A baseline period of 15-20 min was allowed for stabilization of recordings prior to dosing.^2
Dose-response curves for twitch blockade by gantacurium, CW 002, CW 011, cisatracurium, CW002-Cys, NB 938-69, NB 1064-81, NB 802-17 (CW 001), NB 832-65, and NB 1163-79, structures of which are all shown above, were generated as follows. […] Successive doses were separated by at least three estimated half lives beyond complete recovery of the previous dose to TOF of 110-120%, which is normal for these monkeys. Only the first one or two doses yielding 5 to 99% blockade were included from any single experiment for computation of dose-response data.
Comparative studies of spontaneous recovery versus antagonism/reversal were done at least 3 estimated half-lives following dose-response studies.
ED 50 and ED 95 were computed from the regression of log dose vs. the logit of percentage blockade of twitch.
CW002-Cys, the L-cysteine adduct of CW 002, was available in limited quantity and was administered in cumulative fashion to three animals to compare approximate potency and duration of effect versus its parent compound CW 002.

## COc1ccc(C[C@@H]2c3cc(OC)c(OC)cc3CC[N@@+]2(C)CCCOC(=O)CC(SC[C@@H](N)C(=O)O)C(=O)OCCC[N@+]2(C)CCc3cc(OC)c(OC)cc3[C@H]2Cc2ccc(OC)c(OC)c2)cc1OC (stereo partly drawn) [CW002-Cys]
[1]; 37° C., pH 7.4, read-out: t½ of initial adduct peak (alkaline hydrolysis of the adduct)
  half-life: ~1 h
[1]; ambient temperature, pH of 2
  time the initial adduct is stable: > 24 h
[2]
  Duration, spontaneous recovery (times approximate): ~30-35^+++ min
